Results from patent US20230039086A1, “BMS-986165 CRYSTAL FORM, PREPARATION METHOD THEREFOR AND USE THEREOF” (CRYSTAL PHARMACEUTICAL (SUZHOU) CO., LTD., priority 2019, published 2023).
“Also recorded” adds a separate entry of the source.

Columns and labels:
[1] = Physical stability on manual grinding, XRPD before and after; format: physicochemical; conditions: ground manually for 5 minutes in a mortar
Description: Form CSII was grounded manually for 5 minutes in a mortar. Crystalline form before and after grinding were checked by XRPD.

[2] = Physical stability under pressure (tableting), XRPD before and after; format: physicochemical
Text: A certain amount of Form CSI was compressed into tablets under 3 kN, 7 kN and 14 kN with suitable tableting die. Crystalline forms before and after tableting were checked by XRPD.
A certain amount of Form CSII was compressed into tablets under 5 kN, 10 kN and 20 kN with suitable tableting die. Crystalline forms before and after tableting were checked by XRPD.

[3] = Compressibility (ENERPAC manual tablet press, tablet hardness and tensile strength); format: physicochemical; conditions: 80 mg, φ6 mm round tooling, 10 KN; for Diameter / Hardness / Thickness: after 24 h at room temperature; for Tensile strength: calculated T=2H/πDL*9.8
Description: (§1) ENERPAC manual tablet press was used for compression. 80 mg of Form CSI and Form A were weighed and added into the dies of a φ6 mm round tooling, compressed at 10 KN manually, then stored at room temperature for 24 h until complete elastic recovery. Hardness (H) was tested with an intelligent tablet hardness tester. Diameter (D) and thickness (L) were tested with caliper. Tensile strength of the powder was calculated with the following formula: T=2H/πDL*9.8. Under a certain force, the greater the tensile strength, the better the compressibility.
as §1, with “CSII” for “CSI”

[4] = Storage stability at 25 °C/60% RH and 40 °C/75% RH, crystalline form by XRPD and chemical purity by HPLC; format: physicochemical; conditions: for Crystalline form after storage: XRPD; for Purity: HPLC
Description: Approximately 5 mg of Form CSI in the present disclosure was stored under different conditions of 25° C./60% RH and 40° C./75% RH. Crystalline form and chemical purity were checked by XRPD and HPLC, respectively.
Approximately 5 mg of Form CSII in the present disclosure was stored under different conditions of 25° C./60% RH and 40° C./75% RH. Crystalline form and chemical purity were checked by XRPD and HPLC, respectively.

[5] = Adhesiveness (material sticking to the punch during compression); format: physicochemical; conditions: for Adhesiveness (in words): compared with Form A where a comparison is stated
Description: Approximately 30 mg of Form CSII and Form A were weighed and then added into the dies of φ8 mm round tooling, compressed at 10 kN and held for 30 s. The material sticking to the punch was recorded. The compression was repeated twice and the cumulative amount, maximum amount and average amount of material sticking to the punch during the compression were recorded.

[6] = phase III clinical study results announced in November 2020, moderate to severe plaque psoriasis; cited from earlier work
[7] = systemic lupus erythematosus and Crohn's disease; cited from earlier work
[8] = Thermodynamic stability: suspension of Form A plus Form CSI stirred at 5 °C, solid checked by XRPD; format: physicochemical
Description: A certain amount of Form A was weighed into glass vail and 0.3 mL of solvent mixtures of water and acetonitrile, water and methanol, or water and acetone according to table 8 were added to form suspensions. Approximately 6 mg of Form CSI of the present disclosure was added in the suspension. After mixing at 5° C. for 5 minutes, a portion of the solid was taken out and tested by XRPD. After the suspension was stirred at 5° C. for 6 days, a portion of the solid was taken out and tested by XRPD again.

[9] = 25 °C/60% RH, open and sealed, 6 months
[10] = 25 °C/60% RH, sealed (closed), 6 months
[11] = 40 °C/75% RH, open and sealed, 6 months
[12] = 40 °C/75% RH, sealed (closed), 6 months
[13] = about 30 mg, φ8 mm round tooling, 10 kN held for 30 s

Row | Structure (SMILES) | Compressibility / behaviour during tablet pressing (in words) [3] | Diameter [3] | Hardness [3] | Thickness [3] | Tensile strength [3] | Time for which the crystalline form is stable (does not change) ([4]; 25 °C/60% RH, open and sealed) | Change of chemical purity during storage (in words) [4, 9] | Crystalline form after storage ([4]; 25 °C/60% RH, open, 6 months) | Crystalline form after storage [4, 10] | Time for which the crystalline form is stable (does not change) ([4]; 40 °C/75% RH, open and sealed) | Change of chemical purity during storage (in words) [4, 11] | Crystalline form after storage ([4]; 40 °C/75% RH, open, 6 months) | Crystalline form after storage [4, 12] | Average amount of material sticking to the punch [5, 13] | Maximum amount of material sticking to the punch [5, 13] | Adhesiveness (in words) [5] | further results
1 | [2H]C([2H])([2H])NC(=O)c1nnc(NC(=O)C2CC2)cc1Nc1cccc(-c2ncn(C)n2)c1OC [Form CSII, 6-(cyclopropanecarboxamido)-4-((2-methoxy-3-(1-methyl-1H-1,2,4-triazol-3-yl)phenyl)amino)-N-(methyl-d3)pyridazine-3-carboxamide] | better compressibility compared with Form A | 6.08 mm | 4.24 kgf | 2.30 mm | 1.89 MPa | at least 6 months | remains substantially unchanged | Form CSII | Form CSII | at least 6 months | remains substantially unchanged | Form CSII | Form CSII | 0.06 mg | 0.06 mg | superior to that of Form A | Crystalline state after grinding [1]: does not change; also recorded: doesn't change; Crystalline state after tableting ([2]; tablets compressed under 5 kN, 10 kN and 20 kN): does not change
2 | [2H]C([2H])([2H])NC(=O)c1nnc(NC(=O)C2CC2)cc1Nc1cccc(-c2ncn(C)n2)c1OC [BMS-986165, 6-(cyclopropanecarboxamido)-4-((2-methoxy-3-(1-methyl-1H-1,2,4-triazol-3-yl)phenyl)amino)-N-(methyl-d3)pyridazine-3-carboxamide] |  |  |  |  |  |  |  |  |  |  |  |  |  |  |  |  | Clinical effect [6]: positive clinical effects; Therapeutic effect [7]: good therapeutic effects
3 | [2H]C([2H])([2H])NC(=O)c1nnc(NC(=O)C2CC2)cc1Nc1cccc(-c2ncn(C)n2)c1OC [Form A, 6-(cyclopropanecarboxamido)-4-((2-methoxy-3-(1-methyl-1H-1,2,4-triazol-3-yl)phenyl)amino)-N-(methyl-d3)pyridazine-3-carboxamide, reference compound] | poor compressibility; also recorded: splintering |  |  |  |  |  |  |  |  |  |  |  |  | 0.190 mg | 0.260 mg | high adhesiveness | Adhesion quantity of Form A relative to that of Form CSII [5, 13]: 3.2 times
4 | [2H]C([2H])([2H])NC(=O)c1nnc(NC(=O)C2CC2)cc1Nc1cccc(-c2ncn(C)n2)c1OC [Form CSI, 6-(cyclopropanecarboxamido)-4-((2-methoxy-3-(1-methyl-1H-1,2,4-triazol-3-yl)phenyl)amino)-N-(methyl-d3)pyridazine-3-carboxamide] | better compressibility compared with Form A | 6.06 mm | 7.87 kgf | 2.39 mm | 3.39 MPa | at least 6 months | remains substantially unchanged | CSI | CSI | at least 6 months | remains substantially unchanged | CSI | CSI | 0.105 mg | 0.130 mg | superior to that of Form A | Crystalline state after tableting ([2]; tablets compressed under 3 kN, 7 kN and 14 kN): does not change; also recorded: doesn't change; Chemical purity during storage [4, 9]: above 98.0%; Purity ([4]; 25 °C/60% RH, open, 6 months): 98.76%; Purity ([4]; 25 °C/60% RH, sealed, 6 months): 98.79%; Purity ([4]; 40 °C/75% RH, open, 6 months): 98.74%; Purity ([4]; 40 °C/75% RH, sealed, 6 months): 98.73%; Purity ([4]; initial): 98.13%; Crystalline form of solid after stirring time 5 minutes ([8]; mixture of Form A and about 6 mg Form CSI suspended in 0.3 mL water/acetonitrile, water/methanol or water/acetone (samples 1-7), 5 minutes, XRPD): Form A +; Crystalline form of solid after stirring time 6 days ([8]; mixture of Form A and about 6 mg Form CSI suspended in 0.3 mL water/acetonitrile, water/methanol or water/acetone (samples 1-7), 6 days, XRPD): CSI; Stability relative to Form A (in words) ([8]; water/acetonitrile, water/methanol or water/acetone): better stability than Form A
